According to PubChem BioAssay (NCI):
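Cells were grown in 96-well plates and exposed to each compound for 48 hours at five concentrations; endpoints were interpolated linearly between bracketing concentrations, or set to the highest concentration if not reached. The concentration for full growth arrest is given as TGI.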

Key:
Assay in all cases: growth of human tumour cells (NCI), 48 h
OVCAR-8 ovarian = system: OVCAR-8 ovarian
SF-295 CNS = system: SF-295 CNS
TK-10 renal = system: TK-10 renal
M19-MEL melanoma = system: M19-MEL melanoma
MOLT-4 leukemia = system: MOLT-4 leukemia
KM20L2 colon = system: KM20L2 colon
UACC-62 melanoma = system: UACC-62 melanoma
UO-31 renal = system: UO-31 renal
SNB-78 CNS = system: SNB-78 CNS
CAKI-1 renal = system: CAKI-1 renal
MALME-3M melanoma = system: MALME-3M melanoma
U251 CNS = system: U251 CNS
SR leukemia = system: SR leukemia
RPMI-8226 leukemia = system: RPMI-8226 leukemia
HOP-18 NSCLC = system: HOP-18 NSCLC
M14 melanoma = system: M14 melanoma
SF-539 CNS = system: SF-539 CNS
LXFL 529 NSCLC = system: LXFL 529 NSCLC
HOP-92 NSCLC = system: HOP-92 NSCLC
K-562 leukemia = system: K-562 leukemia
OVCAR-5 ovarian = system: OVCAR-5 ovarian
OVCAR-4 ovarian = system: OVCAR-4 ovarian
786-0 renal = system: 786-0 renal
SK-MEL-2 melanoma = system: SK-MEL-2 melanoma
NCI-H460 lung = system: NCI-H460 lung
COLO 205 colon = system: COLO 205 colon
SNB-75 CNS = system: SNB-75 CNS
IGROV1 ovarian = system: IGROV1 ovarian
A498 renal = system: A498 renal
ACHN renal = system: ACHN renal
SF-268 CNS = system: SF-268 CNS
SN12C renal = system: SN12C renal
SK-OV-3 ovarian = system: SK-OV-3 ovarian
SK-MEL-28 melanoma = system: SK-MEL-28 melanoma
SW-620 colon = system: SW-620 colon
SK-MEL-5 melanoma = system: SK-MEL-5 melanoma
NCI-H226 lung = system: NCI-H226 lung
HCT-15 colon = system: HCT-15 colon
UACC-257 melanoma = system: UACC-257 melanoma
NCI-H522 lung = system: NCI-H522 lung
RXF 393 renal = system: RXF 393 renal
DMS 273 small cell lung = system: DMS 273 small cell lung
HT29 colon = system: HT29 colon
HCC-2998 colon = system: HCC-2998 colon
A549 NSCLC = system: A549 NSCLC
KM12 colon = system: KM12 colon
SNB-19 CNS = system: SNB-19 CNS
HOP-62 NSCLC = system: HOP-62 NSCLC
HCT-116 colon = system: HCT-116 colon
DLD-1 colon = system: DLD-1 colon
EKVX NSCLC = system: EKVX NSCLC
NCI-H23 lung = system: NCI-H23 lung

Measured: TGI

O=[N+]([O-])c1ccc(C2=NN(c3ccccc3)C[N+](c3ccc(Br)cc3)=N2)cc1
> 100 µM: OVCAR-8 ovarian | SF-295 CNS | TK-10 renal | M19-MEL melanoma | MOLT-4 leukemia | KM20L2 colon | UACC-62 melanoma | UO-31 renal | SNB-78 CNS | CAKI-1 renal | MALME-3M melanoma | U251 CNS | SR leukemia | RPMI-8226 leukemia | HOP-18 NSCLC | M14 melanoma | SF-539 CNS | LXFL 529 NSCLC | HOP-92 NSCLC | K-562 leukemia | OVCAR-5 ovarian | OVCAR-4 ovarian | 786-0 renal | SK-MEL-2 melanoma | NCI-H460 lung | COLO 205 colon | SNB-75 CNS | IGROV1 ovarian | A498 renal | ACHN renal | SF-268 CNS | SN12C renal | SK-OV-3 ovarian | SK-MEL-28 melanoma | SW-620 colon | SK-MEL-5 melanoma | NCI-H226 lung | HCT-15 colon | UACC-257 melanoma | NCI-H522 lung | DMS 273 small cell lung | HT29 colon | HCC-2998 colon | A549 NSCLC | KM12 colon | SNB-19 CNS | HOP-62 NSCLC | HCT-116 colon | DLD-1 colon | EKVX NSCLC | NCI-H23 lung
79.8 µM: RXF 393 renal
